Data on three compounds can be found in patent US10946012B2, “Methods for inducing tumor regression, inhibiting tumor growth, and inducing apoptosis in breast tumors with geranylgeranyltransferase I inhibitors” (H. Lee Moffitt Cancer Center and Research Institute, Inc., priority 2009, dated 2021).

Assay [1] deals with T1, GGTase I (Homo sapiens, UniProt P49354+P53609).
T1 construct: GGTase I and FTase activities from 60,000×g supernatants of human Burkitt's lymphoma (Daudi) cells; host or cells: Daudi (human Burkitt's lymphoma) cells, 60,000xg supernatant
The assay can be described thus: In vitro GGTase I activity assay ([3H]GGPP transfer to H-Ras-CVLL). In kind it is biochemical. On the procedure: (§1) A brief discussion of exemplary materials and methods follows. In vitro FTase and GGTase I activity assays were performed. GGTase I and FTase activities from 60,000×g supernatants of human Burkitt's lymphoma (Daudi) cells (American Type Culture Collection (ATCC), Rockville, Md.) were assayed as described previously.

The target of assay [2] is T2, FTase (Homo sapiens, UniProt P49354+P49356).
T2 construct: GGTase I and FTase activities from 60,000×g supernatants of human Burkitt's lymphoma (Daudi) cells; host or cells: Daudi (human Burkitt's lymphoma) cells, 60,000xg supernatant
In words: In vitro FTase activity assay ([3H]FPP transfer to H-Ras-CVLS). In kind it is biochemical. To be noted: read-out: IC50, inhibition of FTase activity. On the procedure:
as §1

Assay [3] relates to MDA-MB-231 breast cancer tumors. In words: Anti-tumor activity in the nude mouse tumor xenograft model. In kind it is in vivo, nude mice. The conditions noted are these: for average tumor size: vehicle 860±87. On the procedure: Nude mice (nu/nu, Charles River, Wilmington, Mass.) were maintained in accordance with the Institutional Animal Care and Use Committee (IACUC) procedures and guidelines. MDA-MB-231 cells were harvested via trypsinization, pelleted at 805×g for 5 min, and re-suspended in a 50:50 mixture of sterile PBS and Matrigel (BD Biosciences) at 10×10^6 cells per 100 μl. A volume of 100 μl (˜10×10^6 cells) was injected orthotopically into the upper mammary fat pads of nude mice. The tumor xenografts were monitored by electronic caliper measurements and tumor volume (V) was calculated using the formula V=W^2L/2, where width (W) is […]. When the tumors reached ˜100 mm^3, the animals were randomized and injected intraperiteoneally daily with vehicle (70% DMSO), or 100 mg/kg GGTI-2417 or GGTI-2418, or every third day with GGTI-2418 (200 mg/kg. Tumors were measured every third day for 12-18 days.

The test system of assay [4] is ErbB2-driven mammary tumors. The assay can be described thus: Anti-tumor activity in the ErbB2 transgenic mouse model. It is filed as in vivo. From the text: (§2) A breeding pair of homozygous FVB/N-Tg (MMTVneu) 202Mul/J mice (JAX #002376, Bar Harbor, Me.) was used to generate a transgenic colony in accordance to IACUC protocols and procedures. Phenotypically, these mice overexpress the receptor tyrosine kinase ErbB2 driven by the MMTV promoter, which results in tumor formation at ˜200 days of age. Once tumors reached sizes above 800 mm^3, osmotic mini-pumps (Alzet, Cupertino, Calif.) were loaded with either vehicle (80% PEG300; 20% DMSO) or GGTI-2418 (100 mg/kg daily) and implanted subcutaneously under the dorsal surface of the mouse, between the shoulder blades. Vehicle or GGTI-2418 was constantly delivered for 14 days, during which tumor volumes were measured and calculated as described above. Tumor biopsies were snap frozen in liquid N2 and stored at −80° C. until further processed. Weighted tumor samples were mixed with the appropriate amount of T-PER® Tissue Protein Extraction Reagent (Pierce, Rockford, Ill.) containing protease inhibitor cocktail, 2 mM PMSF, 2 mM Na3VO4, and 6.4 mg/ml p-nitrophenylphosphate and homogenized with the PCR Tissue Homogenizing Kit (Fisher Scientific). The homogenate was centrifuged at 13,000×g for 30 min at 4° C. and the supernatant was subjected to Western blotting with the indicated antibodies.

Assay [5] deals with p27, Rap1, phospho-Akt. In words: Western blot of tumor biopsies from ErbB2 transgenic mice. In kind it is in vivo, mouse.
Source text: as §2
A general note: A western blot detects proteins with antibodies after separation by electrophoresis.

Assay [6] has as its system Cdk2. The conditions noted are these: previous report (Adnane et al. 1998); cited from earlier work.
Assay [7] relates to MDA-MB-468 breast cancer cells. In words: Trypan Blue exclusion assay (proliferation, cell death) in MDA-MB-468 cells. The conditions noted are these: 5 nM p27 siRNA; 50 μM GGTI-2417 or 1 μM taxol. It is filed as cell-based, human. On the procedure:
Human MDA-MB-468 and MDA-MB-231 breast cancer cells and murine NIH 3T3 cells were obtained from the ATCC and cultured in DMEM medium. Human SK-Br3 and BT-474 breast cancer cells (ATCC) were cultured in McCoy's 5a medium and Hybri-Care medium, respectively. Mouse embryonic fibroblast (MEF) cells from p27 wild-type and p27 null mice were grown in DMEM. All media were supplemented with 10% fetal calf serum, 10 units/ml penicillin, and 10 μg/ml streptomycin. Subconfluent cells were treated with different concentrations of GGTI, FTI or DMSO vehicle for specific time periods. After treatment, cells were harvested by trypsinization.
Pre-designed siRNA to p27 (Cat #118714) and the negative control (Cat #4611) were purchased from Ambion (Austin, Tex.). Twenty-four hours before transfection, MDA-MB-468 cells were plated onto twelve-well plates in fresh DMEM medium containing 10% FBS and no antibiotics. Transient transfection of siRNA was carried out using Oligofectamine reagent (Invitrogen, Carlsbad, Calif.), following the manufacturer's instructions. In brief, 5 nM of p27 siRNA or control siRNA were mixed with Opti-MEM medium (Invitrogen) in such a way so that the total volume went to 90 μl, and then complexed with a mixture of 2 μl of Oligofectamine and 8 μl Opti-MEM; the total volume of RNA:Oligofectamine complex was 100 μl. The RNA:Oligofectamine complex was then incubated for 20 min at room temperature before adding to the cells. Before transfection, the old medium was discarded, cells were washed once with fresh Opti-MEM and 400 μl of fresh Opti-MEM placed into each well before adding the RNA:Oligofectamine complex to each well. The final diluted volume on each well was 500 μl. After 8 h, 500 μl DMEM containing 30% FBS was added to each well and cells were further incubated for 40 h.
Adherent cells were harvested by trypsinization and diluted with 0.4% Trypan Blue dye and counted on a hemacytometer. Cells excluding the dye were scored as live cells, whereas cells absorbing the dye were scored as dead cells. Cell proliferation was determined by dividing the number of live cells in the treated sample by the number of live cells in the control, and the degree of cell death was expressed as percentage of dead cells of the total cell number.

The Ki is a dissociation constant, usually derived from enzyme kinetics or from competition with a known ligand. As usually defined, the IC50 is the concentration that inhibits the measured activity by half. Regarding `Cc1nc[nH]c1CN1CCN(C(=O)N[C@@H](CC(C)C)C(=O)O)[C@@H](Cc2ccccc2)C1=O` [GGTI-2418], the inhibitory constant (Ki) in assay [1] (in vitro competition assay, read-out: Ki, competitive inhibition of GGTase I against H-Ras-CVLL protein) is 4.4 ± 1.6 nM. The IC50 in assay [1] (in vitro, H-Ras-CVLL, [3H]GGPP, read-out: IC50, inhibition of GGTase I activity) was 9.5 ± 2 nM. Besides, the concentration for half-maximal inhibition (IC50) in assay [2] came out at 53000 ± 11000 nM. In addition, in assay [3] (100 mg/kg daily i.p.), the tumor growth inhibition is listed as 94% and the average tumor size is 139±17 mm^3. In assay [3] (200 mg/kg every 3rd day i.p.), this compound showed a tumor growth inhibition of 77% and an average tumor size of 276±26 mm^3. In addition, the “tumor regression, average (S.E.M.)” value in assay [4] (100 mg/kg, 7 mice, 17 tumors) worked out at 60±4%. Also, the “tumor decrease, representative example” value in assay [4] (100 mg/kg/day, osmotic mini-pump) came out at 76%. In addition, in assay [5] (pre vs post treatment biopsies), the “S473 phosphorylation of Akt in tumors” value is “dramatic decrease” and the “geranylgeranylation of Rap1 in tumors” value is reported as “inhibited the geranylgeranylation of Rap1”. In assay [5] (vehicle 0.63±0.19 fold, p=0.03), the “change of p27 in post-treatment tumor samples (densitometry)” value turned out to be 2.68±0.63 fold.
Take `COC(=O)[C@H](CC(C)C)NC(=O)c1ccc(NC[C@@H](N)CS)cc1-c1cccc2ccccc12` [GGTI-298]: the Cdk2 activity entry in assay [6] was “inhibits Cdk2 activity”.
As for `CC(=O)O[C@H]1C(=O)[C@@]2(C)[C@H]([C@H](OC(=O)c3ccccc3)[C@]3(O)C[C@H](OC(=O)[C@H](O)[C@@H](NC(=O)c4ccccc4)c4ccccc4)C(C)=C1C3(C)C)[C@]1(OC(C)=O)CO[C@@H]1C[C@@H]2O` [taxol, reference compound], in assay [7], the “tumor cell death in the presence of p27 siRNA” value was “could still die”.
